Results on four compounds are retold here after patent US5117037A, “Cis-bicyclo[4,3.0]non-2-end derivatives” (Sagami Chemical Research Center Toa Eiyo Ltd., priority 1989, dated 1992).

Assay [1] concerns platelet aggregation (ADP-induced). Description: Platelet anti-aggregatory activities, ADP-induced aggregation of washed platelet suspension. It counts as cell-based, Japanese white male rabbits. The conditions noted are these: for IC50: Oryctolagus cuniculus, 0.05 h, rabbit platelet suspension, 3 min preincubation, read-out: Platelet anti-aggregatory activities ED50, ADP (concentration inhibiting 50% of the platelet aggregation); for activity ratio, ADP (PGI2 = 1): ratio of ED50 relative to PGI2. Here is the method:
(§1) Japanese white male rabbits having a weight of from 2.0 to 2.5 kg were used.
(§2) Under anesthesia with pentobarbital sodium, blood was collected from the carotid artery and mixed with citric acid dextrose solution (1/7 volume) as an anticoagulant. Then, the mixture was subjected to centrifugal separation at 140 ×g for 15 minutes, whereupon the supernatant (platelet rich plasma: PRP) was collected. PRP was subjected to centrifugal separation at 1,300 ×g for 7 minutes, and platelet pellets thereby obtained were washed with a HEPES buffer solution (pH 6.5) for washing platelets and then subjected to centrifugal separation at 1,300 ×g for 7 minutes. The platelet pellets were washed twice under the same conditions and then suspended in a suspending solution (prepared by adding 0.1% […] for washing platelets) to make a platelet suspension containing from 5 to 8×10^8 platelets/ml. An aggregation meter was used for the measurement of the platelet aggregatory ability. To 380 μl of the platelet suspension, 10 μl of a test compound or a solvent as control was added. Three minutes later, 10 μl of a platelet aggregatory substance (as the final concentration: […], or […]) was added to induce platelet aggregation. The blood platelet anti-aggregatory activities by the test compound was represented by ED50 (i.e. the concentration of the test compound inhibiting 50% of the platelet aggregation).

Assay [2] deals with platelet aggregation (collagen-induced). Description: Platelet anti-aggregatory activities, collagen-induced aggregation of washed platelet suspension. The format is cell-based, Japanese white male rabbits. The settings on record: for IC50: Oryctolagus cuniculus, 0.05 h, rabbit platelet suspension, 3 min preincubation, read-out: Platelet anti-aggregatory activities ED50, collagen (concentration inhibiting 50% of the platelet aggregation). Here is the method: as §1, §2

Assay [3] relates to gastric lesion induced by ethanol. Description: Inhibitory effect on formation of gastric lesion induced by ethanol. The format is in vivo, Male wistar rats. The conditions noted are these: rat, p.o, 1.5 hours later; for ED50: po, 1 ml of 99.5% ethanol orally 30 minutes after test compound, read-out: Inhibitory effect on formation of gastric lesion induced by ethanol ED50 (dose at which the ulcer was inhibited by 50%); for activity ratio, gastric lesion (PGE2 = 1): ratio of ED50 relative to PGE2. As for the experimental part:
Male wistar rats having a weight of from 170 to 270 g were put into individual cages and starved for 24 hours. During this starvation period, the rats were allowed to drink water freely. A test compound or PGE2 as a comparative compound was orally administered at a dose of 3 μg/kg, 10 μg/kg or 30 μg/kg, and 30 minutes later, 1 ml of 99.5% ethanol was orally administered to each rat. One hour or 4.5 hours after the ethanol administration, each rat was sacrificed by cervical vertebral dislocation, and the stomach was taken out. Each stomach was inflated with an amount of about 8 ml of 1% formaline solution and put into 1% formaline solution for 30 minutes to fix the gastric wall. After the fixing, the stomach was severed along the greater curvature, and the mucous membrane surface of the stomach was gently washed with flowing water. Then, the total length of lesions appearing on the gastric glandular portion was determined and used as the ulcer index.
The inhibitory effect of the test compound was represent by ED50 (i.e. the dose of the test compound at which the ulcer was inhibited by 50% relative to the ulcer index of the non-treated group). To the non-treated group, the solvent was administered.

Molecules are shown by their SMILES.

In the case of `CCCCC[C@H](O)/C=C/[C@@H]1[C@H]2C/C(=C/CCCC(=O)O)O[C@H]2C[C@H]1O` [PGI2, reference compound], the figures for the IC50 in assay [1] and in assay [2] were 2.9 nM and 3.4 nM, respectively.
For `CCC#CCC(C)(C)[C@H](O)C#C[C@@H]1[C@H]2CCC(/C=C\CCC(=O)O)=C[C@H]2C[C@H]1O` [c], in assay [3], the ED50 came out at 0.97 µg/kg and the “activity ratio, gastric lesion (PGE2 = 1)” value is reported as 9.3. In addition, in assay [1], the IC50 turned out to be 1.3 nM and the “activity ratio, ADP (PGI2 = 1)” value is reported as 2.2. For the same compound, in assay [2], the IC50 worked out at 0.58 nM. Besides, in assay [2] (ratio of ED50 relative to PGI2), the “activity ratio, collagen (PGI2 = 1)” value came to 5.9.
Regarding `CCC#CC[C@@H](C)[C@H](O)C#C[C@@H]1[C@H]2CCC(CCOCC(=O)O)=C[C@H]2C[C@H]1O` [f], in assay [3], the ED50 was found to be 2.1 µg/kg and the “activity ratio, gastric lesion (PGE2 = 1)” value is 4.3.
For the compound `CCC#CCC(C)(C)[C@H](O)C#C[C@@H]1[C@H]2CCC(CCOCC(=O)O)=C[C@H]2C[C@H]1O` [g, 3-(3-oxa-4-carboxybutyl)-7-exo-(4,4-dimethyl-3α-hydroxy-1,6-nondiynyl)-8-endo-hydroxy-cisbicyclo[4.3.0]non-2-ene], in assay [1], the IC50 stood at 2.7 nM and the “activity ratio, ADP (PGI2 = 1)” value turned out to be 1.1. In assay [2], the IC50 worked out at 8.6 nM.

By ED50 is commonly meant the dose at which the effect has come halfway, by size or by number of responders.
